The METLIN SMRT retention time set (Domingo-Almenara et al. 2019)

experiment: gradient 5% acetonitrile 3 min, to 50% in 2 min, to 85% in 15 min, held 3 min, 100 µL/min; conditions: column: Zorbax Extend-C18 2.1 x 50 mm; eluents: water / acetonitrile, 0.1% formic acid
Outline: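 Data were gathered over 3 months by HPLC coupled to a quadrupole time-of-flight mass spectrometer, operated in positive and negative ionization mode. Mixtures of ~100 pure standards ran on a Zorbax Extend-C18 column (2.1 × 50 mm, 1.8 μm) at 100 μL/min, with water and acetonitrile each containing 0.1% formic acid and dead and dwell volumes of 40 μL and 900 μL. Retention time was read from adduct peaks picked by computer and checked manually.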

RP-LC retention time [s]	SMILES
793	O=C(c1cc2ccccc2oc1=O)N1CCCC(c2nnc(-c3ccccc3)o2)C1 (centres undefined)
1010	O=C(Cn1nc(C(=O)N2CCCCC2)c2ccccc21)N1CCN(c2cccc(Cl)c2)CC1
894	O=C(NCC(=O)N1CCc2ccccc21)Nc1cccc(Br)c1
844	O=C(Cn1nc2c3sc(N4CCCCC4)nc3ncn2c1=O)Nc1ccc(F)cc1Cl
878	O=C(NCCc1ccsc1)C(=O)Nc1ccccc1F
642	O=C(NCc1ccc(N2CCOCC2)nc1)c1ccc(C(F)(F)F)cc1
1020	COc1ccccc1NC(=O)C1CCN(S(=O)(=O)c2cc(-c3noc(C4CC4)n3)cs2)CC1
785	O=C(Cn1c(=O)c2cccn2c2ccc(F)cc21)NCc1cccs1
696	COc1ccc(NS(=O)(=O)c2cc3n(c2)CCCN(C)C3=O)cc1Cl
685	CCCCN1CCN(C(=O)C2=NN(c3ccc(C)cc3)c3ncccc3S2(=O)=O)CC1
821	Cc1cccc(-c2nnc(-c3nc(NC4CCS(=O)(=O)C4)c4ccccc4n3)o2)c1 (centres undefined)
854	COc1ccc(C(=O)N2CC(=O)Nc3ccc(F)cc3C2c2ccccc2)c(OC)c1 (centres undefined)
849	COCCN(CCOC)c1nc(-c2ccc([N+](=O)[O-])cc2)nc2ccccc12
668	CCOc1ccc(Br)cc1CNc1ccc2[nH]c(=O)[nH]c2c1
704	O=C(NCc1ccc(Br)cc1)C1CCN(c2cncnc2N2CCCC2)CC1
687	Cn1nc2ccc(S(=O)(=O)N3CCSCC3)cn2c1=O
882	CC(C)C(NC(=O)c1cccc(CN2C(=O)C3CCCN3C(=O)c3ccccc32)c1)c1cccs1 (centres undefined)
1080	CCc1nc(-c2csc(S(=O)(=O)N3CCCC(C(=O)Nc4ccc(Cl)cn4)C3)c2)no1 (centres undefined)
855	COCCCn1cnc2c(-c3ccccc3)cn(CC(=O)NCc3ccc4c(c3)OCO4)c2c1=O
588	CCC(=O)Nc1cccc(-c2nnc3n2CCC3)c1
1090	Cc1ccccc1-n1c(=O)c2sccc2n(Cc2nc(-c3ccc(Cl)cc3)no2)c1=O
962	CCC(C)CN(CC(=O)N1CCc2sccc2C1COc1ccc(F)cc1)C(=O)COC (centres undefined)

RP-LC retention time [s]	SMILES
931	Cc1c(C(=O)N2CCOCC2)cnn1-c1cc(-c2nc(C(C)(C)C)no2)ccn1
767	Cn1c(=O)n(CC(=O)N2CCOCC2)c(=O)c2cnc(-c3ccccc3)nc21
1080	CCC(C)NC(=O)c1cccn1Cc1noc(-c2ccc(Cl)cc2)n1 (centres undefined)
567	CN(C)CCNC(=O)c1ccc2c(c1)nnn2Cc1ccccc1
681	O=C(Nc1cc(F)ccc1F)NC1CCN(c2cc(N3CCCC3)cnn2)C1 (centres undefined)
641	CCc1ccc(NC(=O)N(CC)c2nc(-c3ccc(C4CCCCC4)cc3)cs2)cc1
650	COc1ccc(F)cc1S(=O)(=O)N1CCC(n2cnnc2C)CC1
726	COC(=O)c1ccc(NC(=O)N2CCC3(CC2)NC(=O)c2ccccc2O3)cc1
797	O=C1CC(c2nc3ccccc3n2CC(O)COc2ccccc2Cl)CN1Cc1ccccc1 (centres undefined)
1170	CC(CCc1ccccc1)NC(=O)c1cc2sc(Cl)cc2n1C (centres undefined)
962	Cc1ccc(OCC(=O)Nc2cc3c(cc2N(C)C)n(C)c(=O)c(=O)n3C)c(C)c1
838	Cc1ccc(CN2CCN(CC(=O)Nc3cc(C)cc(C)c3)C(=O)C2=O)cc1
713	O=C(NC(Cc1ccccc1)c1nnc(N2CCCC2)o1)c1ccco1 (centres undefined)
1070	O=c1c2sccc2n(Cc2nc(-c3ccc(Br)cc3)no2)c(=O)n1-c1cccc(F)c1
1290	O=C(CCC1CCCC1)Nc1nc(-c2ccc(Cl)cc2)cs1
1190	O=C(Nc1cccc(Cl)c1)N1CCN(c2ncc(C(F)(F)F)cc2Cl)CC1
1040	COC(=O)c1c(C)c(C(=O)C(C)N(Cc2ccc(F)cc2)C(=O)C2CCC2)c(C)n1C (centres undefined)
1030	Cc1cc(C)cc(NC(=O)Nc2nccn(-c3cccc(F)c3)c2=O)c1
843	O=C(c1cccc(Cl)c1)N1CCN(S(=O)(=O)c2cc3c4c(c2)CCC(=O)N4CCC3)CC1
826	CCc1nnc(-c2ccc(NC(=O)c3cc4ccccc4o3)cc2)o1
1080	O=C(Cn1nc2c(SC3CCCCC3)nccn2c1=O)N1CCN(c2ccc(F)cc2)CC1
1220	O=C(Nc1nc(-c2ccc3ccccc3c2)cs1)c1ccc(Cl)cc1Cl

RP-LC retention time [s]	SMILES
592	COc1cc2c(cc1OC)C(C(=O)NCCCN1CCOCC1)C1c3ccccc3CCN1C2=O (centres undefined)
778	COCC(=O)NC1CCC12CCN(C(=O)CC1CCCCC1)CC2 (centres undefined)
747	Clc1nnc2c3ccccc3ccn12
756	CCn1cnc(S(=O)(=O)N2CCCC(C(=O)NCc3ccc(Cl)cc3)C2)c1 (centres undefined)
694	O=C(Cn1ccc2sccc2c1=O)NCc1ccc(F)cc1
649	CCOc1ccccc1CNC(=O)c1ccc2[nH]c3c(c2c1)CN(C(C)=O)CC3
713	CCOC(=O)C1=C(CN2CCN(Cc3ccccc3)CC2)NC(=O)NC1c1ccc(OC(C)C)cc1 (centres undefined)
615	Cc1cccc(S(=O)(=O)N2CCC(c3cc(N)on3)CC2)c1
680	COc1ccc(OC)c(CNC(=O)C2CCN(c3cnc4nccnc4c3)CC2)c1
1110	CCCN1C(=O)COc2ccc(-c3noc(-c4ccc(OC)c(OC)c4)n3)cc21
902	CC(=O)c1cccc(NC(=O)Cn2nc3c4cc(-c5ccc(Cl)cc5)nn4ccn3c2=O)c1
869	CCC(=O)Nc1cccc(-c2noc(C3CCN(C(=O)CCc4c[nH]c5ccccc45)CC3)n2)c1
553	O=C1CCC2(C(=O)NCCN3CCOCC3)CCCC=C2N1c1ccccc1 (centres undefined)
1060	Cc1c(Cl)cccc1S(=O)(=O)N1CCc2c(c(-c3nnc(-c4ccccc4)o3)nn2C)C1
1120	Cc1ccc(-c2csc(NC(=O)Cc3ccc(Cl)cc3)n2)cc1
1090	Cc1cccc(-c2nc(N)n(C(=O)C(C)(C)C)n2)c1
621	CCN(CC)CCCNC(=O)C(C)n1nc(C)c2c(C)n(-c3ccccc3)nc2c1=O (centres undefined)
733	CC(C)C(=O)NCc1cnn(-c2ccc(C(=O)Nc3ccc4c(c3)OCCO4)cc2)c1
637	CCOc1ccc(-c2n[nH]c3c2C(c2ccc(O)c(OC)c2)NC3=O)cc1 (centres undefined)
720	COc1cc(C(C)=O)ccc1OCCCN1CCC(c2noc3cc(F)ccc23)CC1
876	O=C(c1cn2cc(Cl)ccc2n1)N1CCN(c2ccc(F)cc2)CC1
643	CCN(CC)C(=O)CCC1CCCN(c2cc(NC3CC3)ncn2)C1 (centres undefined)

RP-LC retention time [s]	SMILES
788	Cn1nc(-c2nc(C3CC3)no2)c2c1CCN(C(=O)NCc1ccccc1)C2
587	Cc1ncoc1C(=O)N1CCC(N2CC(OCC3CC3)C23CCOCC3)CC1 (centres undefined)
652	O=C(NC1CCCCCC1)C1CCN(c2cn[nH]c(=O)c2)C1 (centres undefined)
687	CCn1c(=O)oc2cc(S(=O)(=O)N3CCN(C(=O)c4ccnn4C)CC3)ccc21
906	CCNC(=O)N1CCCC(c2cccc(C(=O)NCCC3=CCCCC3)c2)C1 (centres undefined)
1050	COc1cccc(NC(=O)N2CCCC2c2nc(-c3cccc(Cl)c3)no2)c1 (centres undefined)
878	O=C(NC(c1ccccc1)c1nnc(N2CCCCC2)o1)C1CCCCC1 (centres undefined)
769	COCCOCc1nc(C2CCN(S(=O)(=O)c3cccc4nsnc34)C2)no1 (centres undefined)
1090	O=C(CCC(=O)N1CC2CCCN2c2ccccc21)NCc1ccco1 (centres undefined)
859	COc1ccc(NC(=O)Cn2ccc3ccn(Cc4ccccc4)c3c2=O)cc1OC
665	COc1ccccc1-c1cc(C(=O)N2CCN(c3cc(=O)n(C)c(=O)n3C)CC2)[nH]n1
1050	Cc1ccc(S(=O)(=O)N2CCC(n3cnc4c(C)cccc4c3=O)CC2)cc1C
777	CCS(=O)(=O)Nc1ccc(-c2noc(C(C)NC(=O)c3ccccc3)n2)cc1 (centres undefined)
589	COc1cc(OC)cc(C(=O)NCC2(O)CCOCC2)c1
918	Cc1ccccc1-c1noc(Cn2ccn(-c3ccc(Cl)cc3)c(=O)c2=O)n1
776	Cc1ccc(-c2cc(C(=O)N3CCC(NC(=O)Cc4cccs4)CC3)[nH]n2)c(C)c1
877	NC(=O)c1ccsc1NC(=O)c1ccc(S(=O)(=O)N2CCc3ccccc3C2)cc1
703	Cc1noc(-c2nc(-c3ccncc3)no2)n1
686	CN(C)CCCNC(=O)C1CCN(c2nc3ccc(-c4ccc(F)cc4)nc3s2)CC1
929	Cc1nc(-c2ccc(C(=O)N3CCCc4ccccc43)cc2)no1
695	Cc1nc(C)c(CCNS(=O)(=O)c2cc(C)c(C)cc2C)s1

SMILES	RP-LC retention time [s]
COc1ccc(Cc2nc3ccccc3n2CC(=O)N2CCCCCC2)cc1OC	653
CC(=O)NCC1CNCC12CCCCC2 (centres undefined)	509
